Experimental data reported in patent US4447453A, “Anti-peptic ulcer agent” (Chugai Seiyaku Kabushiki Kaisha, priority 1980, dated 1984).

Assays:
[1] = tested on: ulcers developed in Shay rats; assay: Pylorus ligation (Shay) ulcer test in rats; format: in vivo, rat (Sprague-Dawley, male)
Protocol: Groups of 8-week-old Spraque-Dawley male rats each consisting of 10 members were starved for 48 hours, anaethesized with ether and had their pylorus ligated in accordance with the method of Shay et al. (Gasteroenterology, 5, 43-61, 1945). Immediately thereafter, they were administered the compounds of the present invention intra-duodenally or intraperitoneally. Eighteen hours later, they were killed with excess ether and the gastric mucus membrane was removed and observed under a stereoscopic microscope (×10). The diameter (mm) of the ulcers developed in each rat was summed and the sum was used as the ulcer index of each rat.
The activity of the compounds of the present invention to cure peptic ulcer was measured as in Example 1. The test compound was administered in the duodenum.

[2] = tested on: rats with stress-induced ulcer; assay: Restraint and water immersion stress ulcer test in rats (Takagi et al.); format: in vivo, rat (Sprague-Dawley, male); settings: for inhibition in vivo at 50 mg/kg / inhibition in vivo at 100 mg/kg / inhibition in vivo at 200 mg/kg: Rattus norvegicus
Protocol: Groups of 7-week-old Sprague-Dawley male rats each consisting of 10 members were starved for 24 hours and administered orally the compounds of the present invention. Ten minutes later, they were confined in a restrainer cage according to the method of Takagi et al. (Japanese Journal of Pharmacology, 18, 9-18, 1968), and the cage was placed vertically in a water tank at 23°-24° C. until the rats were immersed in the water to the depth of the processus xiphoideus. Sixteen hours later, the rats were killed with excess ether and had their stomach removed. Each stomach was incised along the greater curvature after the surface of the gastric mucosa and serous membrane was lightly fixed with 1% formalin. The diameter (mm) of the ulcers developed in each rat was summed and the sum was used as the ulcer index for each rat.
The activity of the compounds of the present invention to cure peptic ulcer was measured as in Example 2.

[3] = Acute oral toxicity (LD50) in ddY mice; settings: mouse, in vivo, male ddY mice, suspension in 2% aqueous gum arabic
Protocol: The compounds listed above have very low toxicity, and the first six compounds have following the LD50 values when they are administered orally to ddY strain male mice (5 weeks old and weighing from 26-30 g) in the form of a suspension in a 2% aqueous gum arabic: […]

[4] = Table 1, intra-duodenal, 50 mg/kg, 18 h
[5] = Table 1, intra-duodenal, 100 mg/kg, 18 h
[6] = Table 1, intra-duodenal, 200 mg/kg, 18 h
[7] = Table 1, intra-peritoneal, 50 mg/kg, 18 h
[8] = Table 2, oral, 50 mg/kg, 16 h immersion
[9] = Table 2, oral, 100 mg/kg, 16 h immersion
[10] = Table 2, oral, 200 mg/kg, 16 h immersion
[11] = Table 4, as in Example 2 (oral), 200 mg/kg
[12] = Table 3, administered in the duodenum, 100 mg/kg

Cc1c(Cl)ccc(C(=O)O)c1Nc1ccccc1C(=O)O [Compound 5]
inhibition [1, 4]: 67.1%
ulcer index (means ± S.E.) [1, 4]: 1.3 ± 0.6 mm
inhibition [1, 5]: 96.6%
ulcer index (means ± S.E.) [1, 5]: 0.1 ± 0.1 mm
inhibition [1, 6]: 100%
ulcer index (means ± S.E.) [1, 6]: 0 mm
inhibition [1, 7]: 100%
ulcer index (means ± S.E.) [1, 7]: 0 mm
inhibition in vivo at 50 mg/kg [2, 8]: 38.5%
inhibition in vivo at 100 mg/kg [2, 9]: 88.2%
inhibition in vivo at 200 mg/kg [2, 10]: 100%
ulcer index (means ± S.E.) [2, 8]: 9.6 ± 4.4 mm
ulcer index (means ± S.E.) [2, 9]: 1.8 ± 0.9 mm
ulcer index (means ± S.E.) [2, 10]: 0 mm
LD50 [3]: 1250 mg/kg

Cc1cc(Nc2cc(Cl)ccc2C(=O)O)c(C(=O)O)cc1C [Compound 15]
inhibition in vivo at 200 mg/kg [2, 11]: 78.8%
ulcer index (means ± S.E.) [2, 11]: 8.2 ± 3.2 mm

Cc1ccc(C(=O)O)c(Nc2ccccc2C(=O)O)c1C [Compound 14]
inhibition [1, 12]: 78.5%
ulcer index (means ± S.E.) [1, 12]: 0.4 ± 0.4 mm
inhibition in vivo at 200 mg/kg [2, 11]: 90.9%
ulcer index (means ± S.E.) [2, 11]: 3.5 ± 1.6 mm

Cc1cc(C(=O)O)c(Nc2ccccc2C(=O)O)cc1Cl [Compound 12]
inhibition [1, 12]: 91.8%
ulcer index (means ± S.E.) [1, 12]: 0.3 ± 0.3 mm
inhibition in vivo at 200 mg/kg [2, 11]: 96.7%
ulcer index (means ± S.E.) [2, 11]: 1.3 ± 0.7 mm

Cc1cc(C)c(C(=O)O)c(Nc2ccccc2C(=O)O)c1 [Compound 11]
inhibition [1, 12]: 60.0%
ulcer index (means ± S.E.) [1, 12]: 1.4 ± 0.6 mm
inhibition in vivo at 200 mg/kg [2, 11]: 96.9%
ulcer index (means ± S.E.) [2, 11]: 1.2 ± 0.9 mm

Cc1cc(Nc2ccccc2C(=O)O)c(C(=O)O)cc1C [Compound 10]
inhibition [1, 12]: 100.0%
ulcer index (means ± S.E.) [1, 12]: 0 ± 0 mm
inhibition in vivo at 200 mg/kg [2, 11]: 90.1%
ulcer index (means ± S.E.) [2, 11]: 3.8 ± 1.5 mm

Cc1ccc(C(=O)O)c(Nc2cc(Cl)ccc2C(=O)O)c1C [Compound 9]
inhibition [1, 12]: 80.1%
ulcer index (means ± S.E.) [1, 12]: 0.7 ± 0.7 mm
inhibition in vivo at 200 mg/kg [2, 11]: 83.4%
ulcer index (means ± S.E.) [2, 11]: 6.5 ± 3.4 mm

O=C(O)c1ccc(Cl)cc1Nc1cc(Cl)ccc1C(=O)O [Compound 3]
inhibition [1, 4]: 33.7%
ulcer index (means ± S.E.) [1, 4]: 2.3 ± 0.7 mm
inhibition [1, 5]: 78.0%
ulcer index (means ± S.E.) [1, 5]: 0.9 ± 0.6 mm
inhibition [1, 6]: 100%
ulcer index (means ± S.E.) [1, 6]: 0 mm
inhibition [1, 7]: 95.7%
ulcer index (means ± S.E.) [1, 7]: 0.3 ± 0.3 mm
inhibition in vivo at 50 mg/kg [2, 8]: 23.3%
inhibition in vivo at 100 mg/kg [2, 9]: 49.5%
inhibition in vivo at 200 mg/kg [2, 10]: 92%
ulcer index (means ± S.E.) [2, 8]: 14.3 ± 3.9 mm
ulcer index (means ± S.E.) [2, 9]: 9.4 ± 4.8 mm
ulcer index (means ± S.E.) [2, 10]: 1.5 ± 0.8 mm
LD50 [3]: > 2000 mg/kg

COc1ccc(C(=O)O)c(Nc2cc(Cl)ccc2C(=O)O)c1 [Compound 8]
inhibition [1, 12]: 100.0%
ulcer index (means ± S.E.) [1, 12]: 0 ± 0 mm
inhibition in vivo at 200 mg/kg [2, 11]: 96.7%
ulcer index (means ± S.E.) [2, 11]: 1.7 ± 1.3 mm

O=C(O)c1ccccc1Nc1cc(Cl)ccc1C(=O)O [Compound 1]
LD50 [3]: 2100 mg/kg

Cc1cc(C)c(C(=O)O)c(Nc2cc(Cl)ccc2C(=O)O)c1 [Compound 13]
inhibition [1, 12]: 50.0%
ulcer index (means ± S.E.) [1, 12]: 1.0 ± 0.7 mm
inhibition in vivo at 200 mg/kg [2, 11]: 70%
ulcer index (means ± S.E.) [2, 11]: 11.6 ± 6.2 mm

Cc1ccc(C(=O)O)c(Nc2ccccc2C(=O)O)c1 [Compound 6]
inhibition [1, 4]: 58.6%
ulcer index (means ± S.E.) [1, 4]: 1.4 ± 0.7 mm
inhibition [1, 5]: 92.5%
ulcer index (means ± S.E.) [1, 5]: 0.3 ± 0.3 mm
inhibition [1, 6]: 100%
ulcer index (means ± S.E.) [1, 6]: 0 mm
inhibition [1, 7]: 48.6%
ulcer index (means ± S.E.) [1, 7]: 2.0 ± 0.7 mm
inhibition in vivo at 50 mg/kg [2, 8]: 34.3%
inhibition in vivo at 100 mg/kg [2, 9]: 92.9%
inhibition in vivo at 200 mg/kg [2, 10]: 100%
ulcer index (means ± S.E.) [2, 8]: 12.1 ± 3.5 mm
ulcer index (means ± S.E.) [2, 9]: 1.5 ± 1.1 mm
ulcer index (means ± S.E.) [2, 10]: 0 mm
LD50 [3]: > 2000 mg/kg

COc1cc(Nc2ccccc2C(=O)O)c(C(=O)O)cc1OC [Compound 7]
inhibition in vivo at 200 mg/kg [2, 11]: 98.4%
ulcer index (means ± S.E.) [2, 11]: 0.2 ± 0.1 mm

Cc1ccc(Nc2cc(Cl)ccc2C(=O)O)c(C(=O)O)c1 [Compound 2]
inhibition [1, 4]: 87.8%
ulcer index (means ± S.E.) [1, 4]: 0.5 ± 0.3 mm
inhibition [1, 5]: 92.7%
ulcer index (means ± S.E.) [1, 5]: 0.3 ± 0.3 mm
inhibition [1, 6]: 100%
ulcer index (means ± S.E.) [1, 6]: 0 mm
inhibition [1, 7]: 80.7%
ulcer index (means ± S.E.) [1, 7]: 0.8 ± 0.4 mm
inhibition in vivo at 50 mg/kg [2, 8]: 22.5%
inhibition in vivo at 100 mg/kg [2, 9]: 89.2%
inhibition in vivo at 200 mg/kg [2, 10]: 100%
ulcer index (means ± S.E.) [2, 8]: 12.0 ± 6.2 mm
ulcer index (means ± S.E.) [2, 9]: 1.7 ± 1.2 mm
ulcer index (means ± S.E.) [2, 10]: 0 mm
LD50 [3]: > 1500 mg/kg

Cc1ccc(C)c(C(=O)O)c1Nc1cc(Cl)ccc1C(=O)O [Compound 4]
LD50 [3]: 3000 mg/kg
